# Measurements taken from US6835563B1, “Compositions and methods for increasing cholesterol efflux and raising HDL ATP binding cassette transporter protein ABC1” (CV Therapeutics, priority 1999, dated 2004).
# Experiments:
# [1] = test system: ABC1 5' flanking region with mutated sterol response element; assay: Luciferase reporter construct 1080-1643 with mutated sterol response element in RAW 264.7 cells; assay type: cell-based, mouse; settings: mutated sequence nt 1080-1643, sterol response element mutated
# Method: (§1) Luciferase Assay: Following transfection, the cells in each well were lysed in 70 μl of 1× cell lysis reagent (Promega, Madison, Wis., Cat. #E3971), subjected to one freeze-thaw cycle, and the lysate cleared by centrifugation for 5 minutes at 12,000 g. After centrifugation, 100 μl of luciferase assay reagent (Promega, Madison, Wis.; Cat. #E1501) was added to 10 μl of lysate. The luciferase activity of each lysate was measured as light units using a luminometer. Additionally, the β-galactosidase activity of each lysate was measured using the chemiluminescent assay reagents supplied in the Galacto-light kit according to the manufacturer's instructions (Tropix Inc., Bedford, Mass.: Cat. #BL100G). The normalized luciferase activity for each lysate was determined by dividing the luciferase activity value by the determined 0-galactosidase value and reported as relative light units.
# Transfection of Reporter Constructs: The RAW 264.7 cells were maintained in culture and transfected with either pGL3-Basic (1 μg), pAPR1 (1 μg), or one of the other reporter constructs according to the method described in Example 15. […] The luciferase activity was measured and reported as relative light units as described in Example 15. […]
# [2] = test system: RAW 264.7 cells; assay: Apo A-I-mediated cholesterol efflux from cholesterol-loaded RAW 264.7 macrophage cells; settings: for increase in apoAI-induced cholesterol efflux: 9 cis-retinoic acid 30 ng/ml, 22(R)hydroxycholesterol 5 μg/ml, fenfibrate 3 μg/ml, PGI2 25 nm, PGE1 25 nM
# Method: Assay to Measure Lipid Efflux: Apo AI-mediated efflux of cholesterol and, phospholipid was assayed according to the method described in. […] RAW 264.7 cells were cholesterol-loaded through the scavenger receptor by 24-hour incubation with acetylated LDL as described in Smith et al., J. Biol. Chem., 271:30647-30655 (1996). Briefly, RAW 264.7 cells in 24-well dishes were cholesterol-loaded and labeled overnight in 0.5 ml of DMEM supplemented with 50 μl/ml 1M glucose, 10 μl/ml 200 mM glutamine and 2% BSA and with 50 μg/ml acetylated low density lipoprotein (AcLDL) and [^3H]-cholesterol which had been pre-incubated for 30 minutes at 37° C. with AcLDL to yield a final concentration of 0.33 μCi/ml [^3H]-cholesterol. Cells were subsequently washed five times with PBS containing 1% BSA and incubated overnight (16-18 hours) in DMEM/BSA to allow for equilibrium of cholesterol pools. After equilibrium of cholesterol pools, cells were rinsed four times with PBS/BSA and incubated for one hour at 37° C. with DMEM/BSA before the efflux incubations. Efflux medium (DMEM/BSA) containing either albumin alone (control), albumin plus HDL (40 μg protein/ml), or albumin plus apo A-I (10 μg/ml, Biodesign International, Kennebunk, Me.) was added and the cells were incubated for 4, 24, or 48 hours. […] The radioactivity found in the culture medium was measured by scintillation counting after a 15-minute centrifugation at 12,000 g. The radioactivity in the cells was measured by scintillation counting after solubilization in 0.5 ml of 0.2M NaOH (Smith et al., J. Biol. Chem., 271:30647-30655 (1996)) or extraction in hexane:isopropanol (3:2 v/v) as described in Francis, et al., J. Clin. Invest., 96, 78-87 (1995). […] The efflux of cholesterol or phospholipid was expressed as the percentage of tritiated lipid counts in the medium over the total tritiated lipid counts recovered from the cells and medium (cpm medium/cpm (medium+lysate)×100).
# Briefly, RAW 264.7 cells suspended at a density of 1.25×10^5 cells/ml were grown in DMEM/10% FBS supplemented with pyruvate. After 24 hours, the medium was removed and replaced with DMEM/BSA plus radiolabeled cholesterol (1 μCi/ml ^3[H]-cholesterol) and 50 μg/ml of acetylated LDL for 24 hours. The cells were then maintained for 24 hours in equilibrium medium consisting of DMEM/BSA plus either apo A-I alone (20 μg/ml), apo A-I and 8-bromo 3′, 5′ cAMP (1 mM) or apo A-I and rolipram (50 μM).
# [3] = test system: ABC1 mRNA; assay: ABC1 mRNA by RT-PCR in RAW 264.7 cells; assay type: cell-based, mouse; settings: single ligand 10 μM, 24 hours, serum-free DMEM/BSA
# Method: RT-PCR: Quantitative PCR was carried out using the GeneAmp 5700 Sequence. Detection System (Perkin-Elmer Applied Biosystems, Foster City, Calif.). Briefly, 500 ng of DNase-treated mRNA was reverse transcribed using random hexamer primers at 2.5 μM. Approximately 5% of this reaction was amplified by PCR using the SYBR green core kit (PE. Applied Biosystems, Foster City, Calif.; Cat. #4304886) and human ABC1 primers LF: 5′-[…] (SEQ ID NO: 11) and LR: 5′-[…] (SEQ ID NO: 12) to yield an 82 bp fragment corresponding to nucleotides 7018-7099 of human ABC1. PCR cycle conditions were as follows: 10 minutes 95° C.; followed by 40 cycles of 95° C., 15 seconds; and 60° C., 60 seconds. The mRNA in each sample was quantitated by detecting the increase in fluorescence caused by SYBR green binding to the double-stranded amplification product generated during each PCR cycle. All samples were run in triplicate and normalized against 0-actin mRNA, amplified in parallel reactions with primers actinF: 5′-[…] (SEQ ID NO: 54) and actinB: 5′-[…] […]
# Mouse RAW 264.7 cells were grown to subconfluence in DMEM/10% FBS and then treated for 24 hours in serum-free DMEM/BSA with either 9-cis retinoic acid (10 μM), 20-hydroxycholesterol (10 μM), or both ligands together (20 μM total). […] RNA was extracted, treated with DNase, and ABC1 mRNA measured by RT-PCR using PE Biosystems SYBR Green Technology as described in Example 9.
# [4] = test system: ABC1 5' flanking region; assay: Luciferase reporter constructs with portions of the ABC1 5' flanking region in RAW 264.7 cells; assay type: cell-based, mouse; settings: wild-type sequence nt 1080-1643 of SEQ ID NO: 3
# Method: as §1
# Construction of Reporter Constructs: Reporter construct pAPR1 and control reporter construct pGL3-Basic were obtained as described in Example 15. […]
# Transfection of Reporter Constructs: The RAW 264.7 cells were maintained in culture and transfected with either pGL3-Basic (1 μg), pAPR1 (1 μg), or one of the other reporter constructs according to the method described in Example 15. […] The luciferase activity was measured and reported as relative light units as described in Example 15.
# [5] = test system: ABC1 promoter; assay: pAPR1 luciferase reporter under control of the ABC1 promoter in RAW 264.7 cells; assay type: cell-based, mouse; settings: pAPR1-transfected RAW 264.7; 10 μM each ligand (20 μM total for both), 24 hours
# Source text: Construction of Reporter Plasmids: Plasmid pGL3-Basic (Promega, Madison, Wis.; Cat. #E1751) was used as a control plasmid containing the promoterless luciferase gene. The reporter construct containing the ABC1 promoter and luciferase gene was made by cloning a genomic fragment from the 5′ flanking region of the ABC1 gene (hAPRI 5′ promoter, corresponding to nucleotides 1080-1643 of SEQ ID NO: 3) into the Sacd site of the GL3-Basic plasmid to generate plasmid GL-6a. Next, plasmid GL-6a was digested with SneI and Acc651. […]
# as §1, with “After centrifugation, 100 μl of luciferase assay reagent (Promega, Madison, Wis.; Cat. #E1501) was added to 10 μl of lysate.” left out, “units. […]” for “units.”
# [6] = test system: normal fibroblasts; assay: Apo A-I-mediated lipid efflux from normal fibroblasts with ABC1 transport inhibitors; assay type: cell-based, human; settings: 0.2 or 0.4 mM, 6 hours, 5 μg/ml apo A-I
# Method: To test whether inhibition of ABC1 could affect the process of apolipoprotein-mediated cholesterol efflux, two compounds reported to be ABC1 inhibitors were tested in assays which monitor apolipoprotein mediated cholesterol efflux. […] The apolipoprotein-mediated cholesterol efflux assays were performed as described in Example 1 with the noted changes.
# Cholesterol-loaded and [^3H]cholesterol-labeled normal fibroblasts (n=3) were incubated for 6 hours with or without 5 μg/ml apo A-I and either 0, 0.2 mM, or 0.4 mM DIDS. In addition, cholesterol-loaded and [^3H]cholesterol-labeled normal fibroblasts (n=3) were incubated for 6 hours with or without 5 μg/ml apo A-I and either 0, 0.2 mM, or 0.4 mM BSP. […] The results are shown in FIG. 5 as the mean±SD (n=3) of efflux in the presence of apo A-I after subtraction of values for apo A-I-free medium. […] The results of these tests mimic the efflux defect in fibroblasts derived from patients with TD, described in Example 1.
# [7] = test system: ABC1; settings: dose-dependent; Becq et al. 1997, Hamon et al. 1997; cited from earlier work
# [8] = test system: normal skin fibroblasts; assay: Apo A-I-mediated cholesterol efflux after antisense inhibition of ABC1 mRNA; assay type: cell-based, human; settings: 30 μM oligonucleotide, apo A-I-mediated efflux after 12 hours
# Method: Normal skin fibroblasts were labeled with [^3H]cholesterol as described in Example 1.
# The cells were then loaded with oligonucleotide by scraping in the presence of either 30 μM control. Morpholino oligonucleotide (5′-[…]-3′ corresponding to the antisense complement of a β-globin thalassemic mRNA; SEQ ID NO: 52) or […] ABC1 antisense. Morpholino oligonucleotide (5′-[…]-3′; SEQ ID NO: 53) and reseeding on new dishes. Control cells were mock-loaded after [^3H]cholesterol-labeling by scraping and reseeding in the absence of oligonucleotide. […] The results are shown in FIG. 6 as the mean±SEM of three separate experiments, normalized to the value for apo A-I-specific efflux in the absence of oligonucleotide in each experiment.
molecule,measurement,setting,value
CC(C)CC[C@@H](O)[C@@H](C)[C@H]1CC[C@H]2[C@@H]3CC=C4C[C@@H](O)CC[C@]4(C)[C@H]3CC[C@]12C [22(R)-hydroxycholesterol],transcriptional response (luciferase activity),[1],did not produce a transcriptional response
CC(C)OC(=O)C(C)(C)Oc1ccc(C(=O)c2ccc(Cl)cc2)cc1 [fenfibrate],increase in apoAI-induced cholesterol efflux,[2],~2 fold
CC(C)CCC[C@](C)(O)[C@H]1CC[C@H]2[C@@H]3CC=C4C[C@@H](O)CC[C@]4(C)[C@H]3CC[C@@]21C [20(S)-hydroxycholesterol],ABC1 mRNA expression,[3],increase in ABC1 mRNA expression
same,transcriptional response (luciferase activity),[4],produced a transcriptional response
same,transcriptional response (luciferase activity),[1],did not produce a transcriptional response
"CCCCC[C@H](O)/C=C/[C@@H]1[C@H]2C/C(=C/CCCC(=O)O)O[C@H]2C[C@H]1O [PGI2, prostacyclin PGI2]",increase in apoAI-induced cholesterol efflux,[2],~2 fold
"CCCCC[C@H](O)/C=C/[C@H]1[C@H](O)CC(=O)[C@@H]1CCCCCCC(=O)O [PGE1, prostaglandin E1]",increase in apoAI-induced cholesterol efflux,[2],~3 fold
CC1=C(/C=C/C(C)=C\C=C\C(C)=C\C(=O)O)C(C)(C)CCC1 [9-cis retinoic acid],ABC1 mRNA expression,[3],increase in ABC1 mRNA expression
same,increase in luciferase reporter activity compared with EtOH control,[5],16 fold
same,transcriptional response (luciferase activity),[4],produced a transcriptional response
same,cholesterol efflux,[2]; 0.3 ng/ml 9-cis-RA with apo A-I,1522 c.p.m.
same,cholesterol efflux,[2]; 3.0 ng/ml 9-cis-RA with apo A-I,3568 c.p.m.
same,cholesterol efflux,[2]; 30 ng/ml 9-cis-RA with apo A-I,8597 c.p.m.
same,increase in apoAI-induced cholesterol efflux,[2],~3 fold
"O=C1OC(c2ccc(O)c(S(=O)(=O)O)c2)(c2ccc(O)c(S(=O)(=O)O)c2)c2c(Br)c(Br)c(Br)c(Br)c21 [BSP, sulphobromophthaleine]",effect on apo A-I-mediated efflux of tritiated cholesterol,[6],inhibit
same,anion transport activities of ABC1,[7],inhibit
"ABC1 antisense. Morpholino oligonucleotide: Morpholino 5′-CATGTTGTTCATAGGGTGGGTAGCTC-3′; SEQ ID NO: 53, directed against ABC1 mRNA (all phosphorodiamidate morpholino (PMO))",reduction in cholesterol efflux compared with control anti-sense oligonucleotide,[8],50%
